One substance from patent US6979665B2, “Agent for stimulation of the natural defences of plants and methods for using it” (Laboratoires Goemar S.A., priority 2002, dated 2005) can be followed below.

Test [1] has as its system PR proteins (families PR1, PR2, PR3 and PR5, acidic and alkaline isoforms). Kind of test: Expression of PR proteins in infiltrated tobacco leaves by immunodetection. The test is classed as in vivo, Nicotiana tabacum. How it is done: Concerning the PR proteins, the expression of the acidic and of the alkaline isoforms of 4 families of these proteins, i.e. the families PR1, PR2, PR3 and PR5 has been analysed in the case of tobacco plants of the varieties NN and Bel3 infiltrated with compositions based on the fractions H11-C1 and H11-S at a concentration of 200 mg/l.
The analysis of these proteins has been carried out by immunodetection as disclosed in the publication in the name of Costet L., Dorey S., Fritig B. and Kauffmann S., published under the title: • “A pharmacological approach to test the diffusible signal activity of reactive oxygen intermediates in elicitor-treated tobacco leaves”, in Plant Cell and Physiology (2002) 43; 91-98.
The intensity of the induction appears on the tracks 1 to 8 by way of spots more or less pronounced.
The samples of infiltrated tissues on which the treatments illustrated by track 9 of FIG. 3 were made, were carried out 3 days after the infiltration treatment.
(§1) In another line of tests or experiences, the varieties NN and Bel3 have been treated with inducing compositions presenting respectively the concentrations of 0.5 and then of 5, of 20, of 50, of 200 and of 1,000 mg/l in H11-S and H11-C2 and the expression of the PR1 and PR2 acidic proteins in the case of the said varieties NN and Bel3 have been analysed.
That expression of the acidic PR1 and PR2 proteins is materialised by the intensity of the spots, which appear on the tracks 10, 11, 12, 13, and which are the result of the determination by immunodetection.

The subject of test [2] is signalisation pathways of salicic acid and of ethylene. Kind of test: Complementary experiences on signalisation pathways. The test is classed as in vivo.
A further test has as its system scopoletin. Nature of the test: Accumulation of total scopoletin in infiltrated tissues. Particulars: variety Bel3, tissues sampled 3 days after infiltration (FIG. 6). The test is classed as in vivo, Nicotiana tabacum. An excerpt: (§2) The stimulation, after infiltration with the here above defined compositions H11-C and H11-S of the accumulation of salicylic acid and of scopoletin in the varieties NN and Bel3 was then examined.
(§3) The results of these experiences appear on FIGS. 5 and 6, which respectively show the accumulation—expressed in μg respectively of salicylic acid and of scopoletin per gram of infiltrated tissues—of the total salicylic acid (free and conjugated forms) and of the total scopoletin (free and conjugated forms) determined on tissues on the varieties NN and Bel3 infiltrated as indicated here above on the one hand with water (C) as a control and on the other hand with compositions based on the fractions H11-C1 and H11-S containing respectively 200 mg/l of these fractions, the infiltrated tissues being sampled 3 days after the infiltration treatment.

Test [3] has as its system cellular suspension of Nicotiana tabacum cv. Bright Yellow. Nature of the test: Alkalinisation test of the extracellular medium on cellular suspension. To be noted: after 10 minutes; 160 μl of 10 g/l composition added to 8 ml suspension, final concentration about 200 mg/l. Type of test: cell-based. The procedure: The cellular suspensions here above mentioned are suspensions obtained starting from the vegetal tissue of Nicotiana tabacum cv. Bright Yellow.
One of these experiences is consisting of the so-called alkalinisation test of the extracellular medium and the other of the so-called test of the refractory state.
In the case of the first test, the latter is carried out on a cellular suspension obtained starting from vegetable tissues of the variety Bright Yellow. To three 8 ml samples of that cellular suspension were added respectively 160 μl of three aqueous compositions respectively containing 10 g/l of the fractions H11-C1, I25 (oligofucanes) and H11-S, the final concentration in each of the oligosaccharides being equal to […].

The subject of test [4] is tobacco plants of the varieties NN and Bel3. Nature of the test: Symptoms of leaf tissues after infiltration into the mesophyl (depigmentation/chlorosis, fluorescence under UV light). The test is classed as in vivo, Nicotiana tabacum. How it is done:
The treatment has been applied on the one hand to the whole plants and on the other hand to cellular suspensions, the varieties of the plants used being: • the variety Nicotiana tabacum cv. Samsun NN designated by NN • the variety Nicotiana tabacum cv. Bel3 designated by Bel3
First, the plants of the varieties NN and Bel 3 as such were treated using aqueous compositions comprising respectively the fractions H11-C1 and H11-S at the concentration of 200 mg/l, which is, as indicated hereabove, the optimum dosis for the elicitor activity of unsulfated glucans.
The treatment consists in the infiltration of the above said aqueous compositions based on the fractions H11-C1 and H11-S into the mesophyl of the leaves of the treated plants.
The infiltration is carried out by piercing tobacco leaves using a needle and by applying then perpendicularly with respect to the plane of the leave a syringe containing the solution to be injected. Immediately after the injection, the infiltration zone, visible by illumination of the leave from its lower face, is delimitated using a felt type pen. The infiltrated zone is designated by ZI.
as §1

Test [5] relates to agronomically useful plants. Kind of test: Stimulation of natural defence reactions of plants by liquid compositions (general statements). Type of test: in vivo. To be noted: in practice.
The test system of a further test is salicylic acid. Kind of test: Accumulation of total salicylic acid in infiltrated tissues. The test is classed as in vivo, Nicotiana tabacum. Particulars: variety Bel3, tissues sampled 3 days after infiltration (FIG. 5).
Description: as §2, §3

The test system of test [6] is OMT activity (orthodiphenol-O-methyltransferases). Kind of test: OMT activity in infiltrated tobacco leaves. The test is classed as in vivo, Nicotiana tabacum. To be noted: for stimulation of the OMT activity: 200 mg/l; for OMT activity relative to that obtained with H11-C2: 500 mg/l. The source says: Measurement was also made of the OMT activity induced by the compositions based on the fractions H11-C1 and H11-S.
For the measurement of that activity, procedure was as disclosed by Costet L., Dorey S., Fritig B. and Kauffmann S in the publication here above identified and published under the title: • “A pharmacological approach to test the diffusible signal activity of reactive oxygen intermediates in […] tobacco leaves”, in Plant Cell and Physiology (2002) 43; 91-98.
The latter show the stimulation of the OMT activity, expressed in pkat/g FP (i.e. in picokatal per gram of fresh product FP, in other words of fresh vegetable material), by infiltration with water as control (reference C), then with the compositions based on H11-C1 and H11-S, the plants treated being again the varieties NN and Bel3.
The OMT activity has also been measured after infiltration of the varieties NN and Bel3 with the same compositions.
In another line of tests, the varieties NN and Bel3 have been treated with the same inducing compositions presenting respectively the concentrations of 0.5 and then of 5, of 50, of 200 and of 500 mg/l in H11-S and H11-C and the OMT activity in the case of the varieties NN and Bel3 has been analysed.
FIGS. 8 and 9 show the values of stimulation of the OMT activity (expressed in pkat/g FP) respectively in the case of the varieties NN and Bel3.

“Also recorded” adds a separate entry of the source.

As for laminarin sulfate [H11-S], the “expression of acidic and alkaline isoforms of PR1, PR2, PR3 and PR5 proteins” value in test [1] (200 mg/l, varieties NN and Bel3, H11-S compared with H11-C1 (FIG. 1)) was “more important; also recorded: stronger”. The “expression of the acidic PR1 protein” value in test [1] (200 mg/l, varieties NN and Bel3, tissues sampled 3 days after infiltration (FIG. 3)) is reported as “highest expression”. In addition, the “concentration from which acidic PR1 and PR2 proteins are detected” value in test [1] (immunodetection, concentration series 0.5 to 1,000 mg/l, varieties NN and Bel3 (FIG. 7)) lay in the range of 5 to 20 mg/L. Besides, in test [1] (varieties NN and Bel3), the “dosis at which the maximum response of expression of the PR proteins is reached” value came out at 500 mg/L. For the same substance, the “induction of signalisation pathways” value in test [2] is “induce the signalisation pathways of salicic acid and of ethylene”. Besides, the “ratio of the concentrations (H11-C1 at 200 mg/l versus H11-S) giving the same accumulation of scopoletin” value with scopoletin was not above 30. In addition, the “alkalinisation of the medium” value in test [3] came to 0.3 pH units. Besides, in test [4] (200 mg/l, infiltrated tissues), the “fluorescence under U.V. light at the level of infiltrated tissues” value is given as “a blue fluorescence under U.V. light is observed”. For the same substance, in test [4] (0.5, 5, 20, 50, 200 and 1,000 mg/l, varieties NN and Bel3), the “symptoms of chlorosis as a function of concentration” value is recorded as “the more the symptoms of chlorosis are severe”. Moreover, the “symptoms of the infiltrated tissues” value in test [4] (aqueous composition 200 mg/l infiltrated into leaf mesophyl, varieties NN and Bel3) was “present a depigmentation”. Besides, the “dose at which first symptoms of fluorescence under UV light are obtained” value in test [4] (concentration series 0.5 to 1,000 mg/l) stood at 50 mg/L. Also, the “concentration above which no better result is provided” value in test [5] is listed as “higher than 500 mg/l”. For the same substance, in the test with salicylic acid, the “ratio of the concentrations (H11-C1 at 200 mg/l versus H11-S) giving the same accumulation of salicylic acid” value is recorded as not above 30. Moreover, the “stimulation of the OMT activity” value in test [6] (varieties NN and Bel3, compared among C, H11-C1, H11-C2, H11-C3, H11-S, H16 (FIG. 4)) was “clearly better”; in test [6] (variety Bel3, H11-S versus H11-C1 (FIG. 2)), “clearly more intense”; in test [6] (variety NN, H11-S versus H11-C1 (FIG. 2)), “similar”. The “increase of OMT activity as a function of the concentration” value in test [6] (0.5, 5, 50, 200 and 500 mg/l, varieties NN and Bel3 (FIGS. 8 and 9)) is listed as “much faster”. Also, the “OMT activity relative to that obtained with H11-C2” value in test [6] (variety Bel3) is “about ten”; in test [6] (variety NN), “about four”. The “factor by which the concentration can be lower than that of H11-C1, H11-C2 and H11-C3 for a comparable OMT result” value in test [6] (conclusion from FIG. 4) is on record as “eight”. The “dosis at which the maximum response of OMT activity is reached” value in test [6] (varieties NN and Bel3) was 500 mg/L. For the same substance, in test [6] (variety Bel3, forecast from FIG. 2), the “factor by which the concentration can be lower for OMT stimulation equal to H11-C1 at 200 mg/l” value lay within 8 to 9 times.
